Read-outs that look alike come from different tables or passages of the source. Blank lines part the entries; values can stand above or below the compound they belong to.
Experiments:
[1] = Plasma and heart concentrations after 5-min i.v. administration in anesthetized mongrel dogs; type: in vivo; settings: iv, dog, 10 mg/kg 5-min i.v.
Experimental: Cpd 38 was dissolved in a 75% PEG400 aqueous solution and administered to dogs (n = 3) at 10 mg/kg as a single 5-min intravenous infusion under a volume of 0.5 mL/kg. Control animals (n = 3) received the vehicle only, under the same experimental conditions.
Blood samples were drawn from a femoral artery at 10 and 60 minutes after the beginning of the drug perfusion and after centrifugation plasma samples were stored frozen at −20 °C until analysis.
At the end of the experiment (around 60 minutes following the beginning of the drug perfusion), the heart was removed and a few grams of tissue were collected from right and left ventricles stored frozen at - 20 °C until analysis.
Analysis of samples was performed using an exploratory LC-MS-MS assay method. Plasma (LOQ of 2 ng/mL) and tissue (LOQ of 3 ng/g) concentrations of Cpd 38 were determined.

[2] = tested on: anesthetized mongrel dogs; assay: Hemodynamic, electrocardiographic and electrophysiological effects in anesthetized mongrel dogs; type: in vivo; settings: dog, 10 mg/kg single 5-min i.v. infusion, monitored up to 60 min, n = 3
Experimental: Six fasted adult mongrel dogs (weighing 18–26 kg) were anesthetized with 20 mg/kg sodium thiopental i.v. Animals were artificially ventilated with a gaseous mixture composed of O^2/air supplemented with around 1.5% end-tidal fraction of isoflurane. Tidal volume and respiratory rate was set at 20 mL/kg and 16 breaths/min. Arterial blood gas was controlled and respiratory adjusted to maintain pH between 7.36 and 7.44, PaO^2 > 80 mmHg and PaCO^2 < 40 mmHg. Four limbs electrodes were positioned to obtain a surface ECG. Two bipolar electrodes were positioned in the right atrium via a jugular access, one to record the atrial electrogram and the second one to stimulate the atrium. A bipolar electrode and a quadripolar electrode were inserted via venous and arterial femoral access and positioned in the right ventricular apex and in the His bundle region, respectively. These electrodes were connected to a programmable stimulator and to a computerized physiograph system. […]
The auricular diastolic stimulation threshold was evaluated with rectangular current pulse (2 ms duration) increased in steps of 0.1 mA and delivered at fixed rate pacing (S1S1) of 400 or 350 ms in function of animal basal cycle length. […]

[3] = tested on: anesthetized male Hartley guinea pigs; assay: Hemodynamic and electrocardiographic effects in anesthetized male Hartley guinea pigs; type: in vivo; settings: guinea pig, 10 mg/kg single 5-min i.v. infusion, monitored up to 30 min, n = 6
Experimental: Male Hartley guinea pigs (weighing 400–500 g) were anesthetized with 35 mg/kg sodium pentobarbital i.p. and let under spontaneous breathing conditions. The body temperature was maintained at 37.5 ± 0.5 °C throughout the experiment. For implantation of vascular catheters, cutaneous incision, subcutaneous and muscular dissections were performed after application of local anesthetic (lidocain, 20 mg/kg). A carotid artery and a jugular vein were catheterized to allow recording of arterial blood pressure and intravenous administration of the drug, respectively. The arterial micromanometer catheter was connected to a pressure transducer. For the electrocardiogram recording, five electrodes were inserted in the subcutaneous layer of fore- and hind-limb. The pressure transducer and ECG electrodes were linked to Gould pre-amplifiers. The amplifiers were connected to a Notocord-Hem computerized data acquisition system and recorded at a sampling rate of 1000 Hz. Either lead I or lead II were recorded, depending on which the better separation of T wave from P wave of the next complex was achieved.
Cpd 38 was dissolved in a 75% PEG400 aqueous solution and administered to guinea pigs (n = 6) at 10 mg/kg as a single 5-min intravenous infusion under a volume of 0.5 mL/kg. Control animals (n = 10) received the vehicle only, under the same experimental conditions. […]

[4] = Plasma and heart concentrations after 5-min i.v. administration in anesthetized male Hartley guinea pigs; type: in vivo; settings: iv, guinea pig, 10 mg/kg 5-min i.v.
Experimental: Cpd 38 was dissolved in a 75% PEG400 aqueous solution and administered to guinea pigs (n = 6) at 10 mg/kg as a single 5-min intravenous infusion under a volume of 0.5 mL/kg. Control animals (n = 10) received the vehicle only, under the same experimental conditions.
Blood samples were drawn from a carotid artery at 10 and 30 minutes after the beginning of the drug perfusion and after centrifugation plasma samples were stored frozen until analysis.
At the end of the experiment (around 30 minutes following the beginning of the drug perfusion), the heart was removed and a few grams of tissue were collected from right and left ventricles stored frozen at - 20 °C until analysis.
Analysis of samples was performed using an exploratory LC-MS-MS assay method. Plasma (LOQ of 2 ng/mL) and tissue (LOQ of 10 ng/g) concentrations of Cpd 38 (expressed as active ingredient).were determined.

[5] = target: NURR1/NOT nuclear receptor (Homo sapiens, UniProt P43354); assay: Gal4 reporter gene assay (EC50 / Emax Gal4); type: cell-based; settings: for Emax Gal4: Table 1
[6] = heart (right and left ventricles), read-out: Heart concentration
[7] = plasma, mean ± SD, n = 3, read-out: Total plasma concentration
[8] = plasma, read-out: Total plasma concentration
[9] = plasma, mean ± SD, n = 6, read-out: Total plasma concentration
[10] = Table 1, replacements of the hydroxymethyl of cpd 4, read-out: EC50 Gal4

Chain of NURR1/NOT nuclear receptor (P43354 whole entry, the tested form may be a part): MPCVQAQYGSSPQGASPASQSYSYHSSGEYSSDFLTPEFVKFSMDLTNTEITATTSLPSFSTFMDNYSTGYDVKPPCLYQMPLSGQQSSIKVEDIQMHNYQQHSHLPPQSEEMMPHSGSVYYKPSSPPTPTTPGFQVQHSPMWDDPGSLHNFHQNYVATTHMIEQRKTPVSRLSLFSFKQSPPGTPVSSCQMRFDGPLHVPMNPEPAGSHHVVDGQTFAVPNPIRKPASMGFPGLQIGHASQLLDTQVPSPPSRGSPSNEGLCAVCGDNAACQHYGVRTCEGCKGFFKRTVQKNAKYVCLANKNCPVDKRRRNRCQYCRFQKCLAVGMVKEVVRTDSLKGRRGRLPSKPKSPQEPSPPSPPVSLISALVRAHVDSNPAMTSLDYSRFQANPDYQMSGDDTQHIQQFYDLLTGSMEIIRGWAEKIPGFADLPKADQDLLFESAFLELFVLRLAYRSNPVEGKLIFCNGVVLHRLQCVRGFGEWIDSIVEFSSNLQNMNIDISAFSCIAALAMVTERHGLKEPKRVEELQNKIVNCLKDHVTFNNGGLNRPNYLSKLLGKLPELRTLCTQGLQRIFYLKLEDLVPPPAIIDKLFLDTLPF

SMILES: OC1(c2cccc(-c3ccc4nc(-c5ccc(Cl)cc5)cn4c3)c2)CCOCC1 [Cpd 40, 4-(3-(2-(4-chlorophenyl)imidazo[1,2-a]pyridin-6-yl)phenyl)tetrahydro-2H-pyran-4-ol]
melting point: 224 to 225 °C

SMILES: COCc1cccc(-c2ccc3nc(-c4ccc(Cl)cc4)cn3c2)c1 [Cpd S2, 2-(4-Chlorophenyl)-6-(3-(methoxymethyl)phenyl)imidazo[1,2-a]pyridine]
melting point: 135 to 137 °C

SMILES: CN(C)Cc1cccc(-c2ccc3nc(-c4ccc(Cl)cc4)cn3c2)c1 [Cpd S3, 1-(3-(2-(4-chlorophenyl)imidazo[1,2-a]pyridin-6-yl)phenyl)-N,N-dimethylmethanamine]
melting point: 290 to 292 °C

SMILES: Clc1ccc(-c2cn3cc(-c4cccc(CN5CCCC5)c4)ccc3n2)cc1 [Cpd S4, 1-(3-(2-(4-chlorophenyl)imidazo[1,2-a]pyridin-6-yl)phenyl)-N-pyrolidine]
EC50 [5, 10]: > 3000 nM

SMILES: Clc1ccc(-c2cn3cc(-c4cccc(CN5CCOCC5)c4)ccc3n2)cc1 [Cpd S5, 1-(3-(2-(4-chlorophenyl)imidazo[1,2-a]pyridin-6-yl)phenyl)-N-morpholine]
EC50 [5, 10]: > 3000 nM

SMILES: CNC(=O)c1cccc(-c2ccc3nc(-c4ccc(Cl)cc4)cn3c2)c1 [Cpd S8, 3-(2-(4-chlorophenyl)imidazo[1,2-a]pyridin-6-yl)-N-methylbenzamide]
Emax Gal4 [5]: 226 ± 66
EC50 [5, 10]: 87 ± 28 nM
melting point: 225 to 227 °C

SMILES: CCN(CC)C(=O)c1cccc(-c2ccc3nc(-c4ccc(Cl)cc4)cn3c2)c1 [Cpd S9, 3-(2-(4-chlorophenyl)imidazo[1,2-a]pyridin-6-yl)-N,N-diethylbenzamide]
melting point: 162 to 164 °C

SMILES: N#Cc1cccc(-c2ccc3nc(-c4ccc(Cl)cc4)cn3c2)c1 [Cpd S10, 3-(2-(4-chlorophenyl)imidazo[1,2-a]pyridin-6-yl)benzonitrile]
melting point: 195 to 197 °C

SMILES: CC(C)CC(O)c1cccc(-c2ccc3nc(-c4ccc(Cl)cc4)cn3c2)c1 (stereo not drawn) [Cpd S15, 1-(3-(2-(4-chlorophenyl)imidazo[1,2-a]pyridin-6-yl)phenyl)-3-methylbutan-1-ol]
EC50 ([5]; Table 2, alkyl or aryl groups on the carbinol, read-out: EC50 Gal4 t): > 3000 nM

Further lines, with some results ahead:

concentration at 60 min ([1]; heart (right and left ventricles), mean ± SD, n = 3, read-out: Heart concentration): 14600 ± 2700 ng/g
concentration at 60 min [1, 6]: 40.2 µM
concentration at 10 min [1, 7]: 23400 ± 2830 ng/mL
concentration at 10 min [1, 8]: 64.5 µM
concentration at 60 min [1, 7]: 10100 ± 769 ng/mL
concentration at 60 min [1, 8]: 27.8 µM
concentration at 30 min ([4]; heart (right and left ventricles), mean ± SD, n = 6, read-out: Heart concentration): 6010 ± 964 ng/g
concentration at 30 min [4, 6]: 16.6 µM
concentration at 10 min [4, 9]: 4660 ± 1350 ng/mL
concentration at 10 min [4, 8]: 12.8 µM
concentration at 30 min [4, 9]: 2570 ± 533 ng/mL
concentration at 30 min [4, 8]: 7.1 µM
SMILES: CC(C)(O)c1cccc(-c2ccc3nc(-c4ccc(Cl)cc4)cn3c2)c1 [Cpd 38, 2-(3-[2-(4-Chlorophenyl)imidazo[1,2-a]pyridin-6-yl]phenyl)propan-2-ol]
Hemodynamic, ECG and electrophysiological effects [2]: No major hemodynamic, ECG and electrophysiological effects were observed
Hemodynamic and ECG effects [3]: No major hemodynamic and ECG effects were observed

melting point: 192 to 194 °C
SMILES: CC(O)(CO)c1cccc(-c2ccc3nc(-c4ccc(Cl)cc4)cn3c2)c1 (stereo not drawn) [Cpd 41, 2-(3-(2-(4-chlorophenyl)imidazo[1,2-a]pyridin-6-yl)phenyl)propane-1,2-diol]

melting point: 145 to 147 °C
SMILES: Cc1cccc(-c2ccc3nc(-c4ccc(Cl)cc4)cn3c2)c1 [Cpd S1, 2-(4-Chlorophenyl)-6-(m-tolyl)imidazo[1,2-a]pyridine]

Emax Gal4 [5]: 210 ± 5
EC50 [5, 10]: 1580 ± 35 nM
melting point: 246 to 248 °C
SMILES: NC(=O)c1cccc(-c2ccc3nc(-c4ccc(Cl)cc4)cn3c2)c1 [Cpd S7, 3-(2-(4-chlorophenyl)imidazo[1,2-a]pyridin-6-yl)benzamide]

Source: publication PMC6820105, “Data on synthesis, ADME and pharmacological properties and early safety pharmacology evaluation of a series of novel NURR1/NOT agonist potentially useful for the treatment of Parkinson's disease” (Data in Brief, 2019)
